Like-named read-outs stand apart in the source and are kept apart here.
Experiments:
OCT2 [1] = molecular target: T1, OCT2 (Homo sapiens, UniProt O15244); test: Inhibition of OCT2-mediated ASP+ uptake (Kido et al., Giacomini group)
T1 sequence (O15244 1-555): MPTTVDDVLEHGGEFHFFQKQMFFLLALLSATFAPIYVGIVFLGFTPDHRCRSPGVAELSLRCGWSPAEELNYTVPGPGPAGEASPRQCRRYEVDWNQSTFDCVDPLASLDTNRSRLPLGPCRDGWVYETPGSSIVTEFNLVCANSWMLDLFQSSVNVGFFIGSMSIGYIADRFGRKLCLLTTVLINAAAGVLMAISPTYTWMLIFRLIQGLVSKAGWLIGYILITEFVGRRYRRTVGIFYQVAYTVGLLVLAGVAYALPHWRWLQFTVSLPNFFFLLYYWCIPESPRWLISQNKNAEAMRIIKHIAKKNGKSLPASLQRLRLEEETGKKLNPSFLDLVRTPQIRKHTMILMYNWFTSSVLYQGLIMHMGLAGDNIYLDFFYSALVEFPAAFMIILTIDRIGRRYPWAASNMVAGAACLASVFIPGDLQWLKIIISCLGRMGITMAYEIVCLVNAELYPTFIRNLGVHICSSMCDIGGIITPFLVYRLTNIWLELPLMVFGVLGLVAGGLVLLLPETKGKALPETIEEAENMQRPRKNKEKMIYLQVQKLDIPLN

OCT2 [2] = molecular target: T1, OCT2; details: OCT2-mediated uptake; ASP+ 5 μM in HBSS; from Kido Y et al. J Med Chem 2011; cited from earlier work
OCT2 [3] = molecular target: T1, OCT2; test: Inhibition of OCT2-mediated oxaliplatin uptake in transfected MDCK-II cells (protein-free HBSS); details: for inhibition at 30 min, 5 μM / inhibition at 30 min, 50 μM / potency estimated from few doses at 30 min: human
Text: Fully confluent MDCK cell monolayers were transfected with either cDNA plasmids encoding the human transporter to be tested or a GFP control. […] The cells were then washed with ice-cold PBS and lysed with 50:50 acetonitrile:H2O. Intracellular content of the substrate was quantified by LC/MS/MS or a MicroBeta radiometric plate reader.

[4] = Published clinical pharmacokinetic data; details: from published Cmax and protein binding
OCT2 [5] = molecular target: T1, OCT2; test: Inhibition of OCT2-mediated metformin uptake in transfected MDCK-II cells; details: for inhibition at 5 min, 5 μM / inhibition at 5 min, 50 μM: human
[6] = cited from earlier work; for Plasma protein binding (%): published data; for Cmax: read-out: Plasma peak total concentration Cmax, published clinical pharmacokinetic data
OCT2 [7] = molecular target: T1, OCT2; test: in vitro
[8] = human, in vivo
[9] = clinical dose; cited from earlier work
OCT2 [10] = molecular target: T1, OCT2; test: Inhibition of OCT2-mediated oxaliplatin transport in 100% human serum or HBSS containing 4% BSA (IC50,app)
[11] = human, cell line expressing human OCT2 (cell line not given), probe ASP+ 5 μM
[12] = MDCK-II cells transfected with human OCT2, probe oxaliplatin 10 μM
[13] = IC50 (μM) (substrate Oxaliplatin)

| SMILES | potency estimated from few doses (OCT2 [1]; [11]) [µM] | Inhibition % @ 20 μM (substrate ASP+) (OCT2 [2]) [%] | inhibition at 30 min, 5 μM (OCT2 [3]) [%] | inhibition at 30 min, 50 μM (OCT2 [3]) [%] | potency estimated from few doses at 30 min (OCT2 [3]) [µM] | Plasma peak unbound concentration Cmax,u [4] [nM] | IC50 (OCT2 [5]) [µM] | Plasma protein binding (%) [6] [%] | Cmax [6] [nM] | IC50 (OCT2 [3]) [µM] | inhibition at 5 min, 5 μM (OCT2 [7]) [%] | inhibition at 5 min, 50 μM (OCT2 [7]) [%] | potency estimated from few doses at 30 min (OCT2 [3]; [13]) [µM] | also measured |
| --- | --- | --- | --- | --- | --- | --- | --- | --- | --- | --- | --- | --- | --- | --- |
| OCC(O)COc1ccc(Cl)cc1 (stereo not shown) [Chlorphenesin] | 0.86 | 96 | 14 | 30 | 118 | – | – | – | – | – | – | – | – | – |
| NC1=NCC2c3ccccc3Cc3ccccc3N12 (stereo not shown) [Epinastine] | 0.58 | 97 | 96 | 100 | 0.19 | 40 | 3.9 | 64.2 | 120 | 0.19 | – | – | – | inhibition at 5 min, 5 μM (OCT2 [5]): 56%; inhibition at 5 min, 50 μM (OCT2 [5]): 92% |
| C=C1C[C@@H]2[C@H](CC[C@]3(C)C(=O)CC[C@@H]23)[C@@]2(C)C=CC(=O)C=C12 [Exemestane] | < 0.1 | 100 | – | – | – | 10 | 2.6 | 90 | 91 | 0.19 | 66 | 94 | – | inhibition at 30 min, 5 μM (OCT2 [3]; [12]): 96%; inhibition at 30 min, 50 μM (OCT2 [3]; [12]): 102%; potency estimated from few doses at 30 min (OCT2 [3]; [12]): 0.19 µM |
| Cc1ccc(NC(=O)c2ccc(CN3CCN(C)CC3)cc2)cc1Nc1nccc(-c2cccnc2)n1 [Imatinib] | < 0.1 | 103 | 57 | 95 | – | – | – | – | – | – | – | – | 3.7 | fold less potent as inhibitor of OCT2-mediated metformin and oxaliplatin uptake than of ASP+ uptake (OCT2 [3]; comparison of Table 1 potencies): > 30 fold |
| CC(C)[N+]1(C)[C@@H]2CC[C@H]1CC(OC(=O)C(CO)c1ccccc1)C2.[Br-] (stereo partly shown) [Ipratropium•Br] | – | 96 | – | – | – | – | – | – | – | – | – | – | – | Inhibition % @ 5 μM (substrate Metformin) (OCT2 [5]; OCT2-mediated uptake, metformin 10 μM in HBSS, 5 min, inhibitor 5 μM): 94%; Inhibition % @ 50 μM (substrate Metformin) (OCT2 [5]; OCT2-mediated uptake, metformin 10 μM in HBSS, 5 min, inhibitor 50 μM): 97%; IC50 (OCT2 [5]; read-out: IC50 (μM) (substrate Metformin), OCT2-mediated uptake, metformin 10 μM in HBSS, estimated from 50 μM or regression of seven concentrations (±SEM)): 0.32 µM; potency estimated from few doses (OCT2 [1]; read-out: IC50 (μM) (substrate ASP+), estimated from the inhibition at the single concentration 20 μM): 0.81 µM; Inhibition % @ 5 μM (substrate Oxaliplatin) (OCT2 [3]; OCT2-mediated uptake, oxaliplatin 10 μM in HBSS, 30 min, inhibitor 5 μM): 107%; Inhibition % @ 50 μM (substrate Oxaliplatin) (OCT2 [3]; OCT2-mediated uptake, oxaliplatin 10 μM in HBSS, 30 min, inhibitor 50 μM): 104%; potency estimated from few doses (OCT2 [3]; read-out: IC50 (μM) (substrate Oxaliplatin), OCT2-mediated uptake, oxaliplatin 10 μM in protein-free HBSS, estimated from single concentration or nonlinear regression): < 0.1 µM; IC50 (OCT2 [3]; read-out: IC50 or Ki, intrinsic inhibition constant in protein free HBSS, OCT2-mediated oxaliplatin uptake): < 0.1 µM |
| N=C(N)c1ccc(OCCCCCOc2ccc(C(=N)N)cc2)cc1 [Pentamidine] | < 0.1 | 102 | 99 | 99 | – | – | 2.5 | 69 | 730 | 0.067 | 67 | 91 | 0.07 | Plasma peak unbound concentration Cmax,u [8]: 230 nM; patients with nephrotoxicity at a clinical dose [9]: ~25% |
| CC(C)[N+](C)(CCOC(=O)C1c2ccccc2Oc2ccccc21)C(C)C [Propantheline•Br] | < 0.1 | 107 | – | – | – | – | 1.7 | – | 134 | < 0.1 | 75 | 96 | < 0.1 | IC50 (OCT2 [10]; IC50,app (μM), apparent inhibition constant in 100% human serum or HBSS containing 4% BSA, OCT2-mediated oxaliplatin uptake): 0.24 µM; inhibition at 30 min, 5 μM (OCT2 [3]; [12]): 103%; inhibition at 30 min, 50 μM (OCT2 [3]; [12]): 102% |
| C[N+]1(C)[C@@H]2C[C@@H](OC(=O)C(O)(c3cccs3)c3cccs3)C[C@H]1[C@@H]1O[C@@H]12 [Tiotropium•Br] | – | – | 98 | 102 | 0.12 | 10 | 1.5 | 72 | 34 | 0.12 | – | – | – | inhibition at 5 min, 5 μM (OCT2 [5]): 77%; inhibition at 5 min, 50 μM (OCT2 [5]): 95%; IC50 (OCT2 [10]): 1.1 µM |

Reference: patent US11197862B2, “Methods of preventing toxicity of platinum drugs” (XOMICS BIOPHARMA, INC., priority 2015, dated 2021)
